Data on 22 compounds can be found in patent publication US20240368177A1, “5-AMINO-6,8-DIHYDRO-1H-FURO[3,4-d]PYRROLO[3,2-b]PYRIDINE-2-CARBOXAMIDE DERIVATIVES AS MTA-COOPERATIVE INHIBITORS OF PRMT5” (BeiGene Switzerland GmbH, priority 2023, published 2024).

One assay has as its system HCT116-MTAP-KO. Briefly: Cell killing in HCT116 isogenic pair (Cell Titer-Glo viability), MTAP knock-out cells. Particulars: Homo sapiens, HCT-116, 144 h, 6 days incubation, 0-10 μM, * = more than 50% viability inhibition at tested concentration without a full curve. It counts as cell-based, human. From the text:
(§1) HCT116 cell line (ATCC, CCL-247) was isolated from the colon of an adult with colon cancer. It has a mutation in codon 13 of the ras proto-oncogene and can be used as a positive control for PCR assays of mutation in this codon. HCT116-MTAP-KO was knocked-out-MTAP-gene based HCT116, and a single clone was passed for this assay. HCT116-mock-RNA-KO was knocked-out-mock-gene based HCT116 with MTAP wildtype genotype. The base medium for HCT116 isogenic pair is RPMI 1640, HEPES (Gibco, 22400105). To make the complete growth medium, added the following components to the base medium: fetal bovine serum to a final concentration of 10% (Gibco, 10099-141C). The cell line was grown in a humidified 5% CO2 atmosphere at 37° C. and regularly tested for the presence of mycoplasma with MpcoAlert™ PLUS Mycoplasma Detection Kit (Lonzak LT07-710).
(§2) • Seeded HCT116-mock-RNA-KO (4E2/well) or HCT116-MTAP-KO (4E2/well) cells into a 96-well plate (Greiner: 655090), 100 μL/well. • Incubated at 37° C., 5% CO2, overnight. • Added 50 μL fresh growth medium containing serial dilution of test compounds for a final test compound concentration of 0-10 μM to each well. • Incubated at 37° C., 5% CO2, 6 days. • The cell viability was detected by Cell Titer-Glo (Promega, G7573). Added 70 μL of CeliTiter-Glo® reagent in each well. • Incubated at room temperature for 10 minutes to stabilize luminescent signal. • Analyzed with Microplate Reader (TECAN, SPARK) and fit IC50 using Prism® 9.
For orientation: ATP-based viability assays read luminescence as a measure of living cells.

The next assay relates to HCT116-mock-RNA-KO. Briefly: Cell killing in HCT116 isogenic pair (Cell Titer-Glo viability), mock knock-out cells with MTAP wildtype genotype. It counts as cell-based, human. As to conditions: Homo sapiens, HCT-116, 144 h, 6 days incubation, 0-10 μM.
From the text: as §1, §2

The structures appear in SMILES notation.

For `CN(C(=O)c1cc2nc(N)c3c(c2[nH]1)COC3)[C@H]1COCc2cc(C(F)(F)F)ccc21` [Example 39, (R)-5-amino-N-methyl-N-(7-(trifluoromethyl)isochroman-4-yl)-6,8-dihydro-1H-furo[3,4-d]pyrrolo[3,2-b]pyridine-2-carboxamide], the IC50 – broadly, the midpoint of a concentration-inhibition curve – in the assay on HCT116-MTAP-KO was 1170 nM; in the assay on HCT116-mock-RNA-KO it was greater than 10000 nM.

In the case of `CN(C(=O)c1cc2nc(N)c3c(c2[nH]1)COC3)[C@@H]1COCc2cc(C(F)(F)F)ccc21` [Example 40, (S)-5-amino-N-methyl-N-(7-(trifluoromethyl)isochroman-4-yl)-6,8-dihydro-1H-furo[3,4-d]pyrrolo[3,2-b]pyridine-2-carboxamide], the figures for the IC50 in the assay on HCT116-MTAP-KO and in the assay on HCT116-mock-RNA-KO were 13 nM and 2490 nM, respectively.

Consider `C[C@H](c1ncccn1)N(Cc1ncc(Br)cc1F)C(=O)c1cc2nc(N)c3c(c2[nH]1)COC3` [Example 41, (R)-5-amino-N-((5-bromo-3-fluoropyridin-2-yl)methyl)-N-(1-(pyrimidin-2-yl)ethyl)-6,8-dihydro-1H-furo[3,4-d]pyrrolo[3,2-b]pyridine-2-carboxamide], for which the IC50 worked out at 6.6 nM in the assay on HCT116-MTAP-KO and 586 nM in the assay on HCT116-mock-RNA-KO.

`Nc1nc2cc(C(=O)N(Cc3ncccn3)Cc3ncc(C(F)(F)F)cc3F)[nH]c2c2c1COC2` [Example 42, 5-amino-N-((3-fluoro-5-(trifluoromethyl)pyridin-2-yl)methyl)-N-(pyrimidin-2-ylmethyl)-6,8-dihydro-1H-furo[3,4-d]pyrrolo[3,2-b]pyridine-2-carboxamide]: the IC50 with HCT116-MTAP-KO stood at 24 nM; in the assay with HCT116-mock-RNA-KO, 2500 nM.

Consider `N#Cc1cc(F)c(CN(Cc2ncccc2F)C(=O)c2cc3nc(N)c4c(c3[nH]2)COC4)c(F)c1` [Example 43, 5-amino-N-(4-cyano-2,6-difluorobenzyl)-N-((3-fluoropyridin-2-yl)methyl)-6,8-dihydro-1H-furo[3,4-d]pyrrolo[3,2-b]pyridine-2-carboxamide], for which the values for the IC50 with HCT116-MTAP-KO and in the assay with HCT116-mock-RNA-KO were 2.9 nM and 207 nM, respectively.

In the case of `COC[C@@H](C)N(Cc1ncc(C(F)(F)F)cc1F)C(=O)c1cc2nc(N)c3c(c2[nH]1)COC3` [Example 44, (R)-5-amino-N-((3-fluoro-5-(trifluoromethyl)pyridin-2-yl)methyl)-N-(1-methoxypropan-2-yl)-6,8-dihydro-1H-furo[3,4-d]pyrrolo[3,2-b]pyridine-2-carboxamide], the values for the IC50 with HCT116-MTAP-KO and with HCT116-mock-RNA-KO were 8.2 nM and 568 nM, respectively.

On to `COC[C@@H](C)N(Cc1ccc(Br)cn1)C(=O)c1cc2nc(N)c3c(c2[nH]1)COC3` [Example 45, (R)-5-amino-N-((5-bromopyridin-2-yl)methyl)-N-(1-methoxypropan-2-yl)-6,8-dihydro-1H-furo[3,4-d]pyrrolo[3,2-b]pyridine-2-carboxamide], for which the IC50 was 7.2 nM in the assay with HCT116-MTAP-KO and 856 nM in the assay with HCT116-mock-RNA-KO.

Consider `COC[C@@H](C)N(Cc1c(F)cc(C#N)cc1F)C(=O)c1cc2nc(N)c3c(c2[nH]1)COC3` [Example 46, (R)-5-amino-N-(4-cyano-2,6-difluorobenzyl)-N-(1-methoxypropan-2-yl)-6,8-dihydro-1H-furo[3,4-d]pyrrolo[3,2-b]pyridine-2-carboxamide], for which the IC50 was 9 nM in the assay with HCT116-MTAP-KO and 854 nM in the assay on HCT116-mock-RNA-KO.

Consider `Nc1nc2cc(C(=O)N(Cc3ncccc3F)Cc3c(F)cc(F)cc3F)[nH]c2c2c1COC2` [Example 47, 5-amino-N-((3-fluoropyridin-2-yl)methyl)-N-(2,4,6-trifluorobenzyl)-6,8-dihydro-1H-furo[3,4-d]pyrrolo[3,2-b]pyridine-2-carboxamide], for which the figures for the IC50 in the assay with HCT116-MTAP-KO and in the assay on HCT116-mock-RNA-KO were 4.4 nM and 605 nM, respectively.

As for `C[C@H](c1ncccn1)N(Cc1ccc(C2CC2)cn1)C(=O)c1cc2nc(N)c3c(c2[nH]1)COC3` [Example 48, (R)-5-amino-N-((5-cyclopropylpyridin-2-yl)methyl)-N-(1-(pyrimidin-2-yl)ethyl)-6,8-dihydro-1H-furo[3,4-d]pyrrolo[3,2-b]pyridine-2-carboxamide], the IC50 in the assay on HCT116-MTAP-KO was found to be 8.4 nM; in the assay with HCT116-mock-RNA-KO, 625 nM.

Regarding `COC[C@@H](C)N(Cc1ncc(Br)cc1F)C(=O)c1cc2nc(N)c3c(c2[nH]1)COC3` [Example 49, (R)-5-amino-N-((5-bromo-3-fluoropyridin-2-yl)methyl)-N-(1-methoxypropan-2-yl)-6,8-dihydro-1H-furo[3,4-d]pyrrolo[3,2-b]pyridine-2-carboxamide], the values for the IC50 in the assay on HCT116-MTAP-KO and in the assay with HCT116-mock-RNA-KO were 6.1 nM and 835 nM, respectively.

In the case of `C[C@H]1OCc2c1c(N)nc1cc(C(=O)N(Cc3ccc(Br)cn3)Cc3ncccc3F)[nH]c21` [Example 50, (R)-5-amino-N-((5-bromopyridin-2-yl)methyl)-N-((3-fluoropyridin-2-yl)methyl)-6-methyl-6,8-dihydro-1H-furo[3,4-d]pyrrolo[3,2-b]pyridine-2-carboxamide], the values for the IC50 in the assay on HCT116-MTAP-KO and in the assay with HCT116-mock-RNA-KO were 8.6 nM and 1360 nM, respectively.

Turning to `C[C@H](c1ncccn1)N(Cc1ccc(I)cn1)C(=O)c1cc2nc(N)c3c(c2[nH]1)COC3` [Example 51, (R)-5-amino-N-((5-iodopyridin-2-yl)methyl)-N-(1-(pyrimidin-2-yl)ethyl)-6,8-dihydro-1H-furo[3,4-d]pyrrolo[3,2-b]pyridine-2-carboxamide], the IC50 was 7.8 nM in the assay with HCT116-MTAP-KO and 558 nM with HCT116-mock-RNA-KO.

As for `C[C@H](c1ncccn1)N(Cc1ncc(C2CC2)cc1F)C(=O)c1cc2nc(N)c3c(c2[nH]1)COC3` [Example 52, (R)-5-amino-N-((5-cyclopropyl-3-fluoropyridin-2-yl)methyl)-N-(1-(pyrimidin-2-yl)ethyl)-6,8-dihydro-1H-furo[3,4-d]pyrrolo[3,2-b]pyridine-2-carboxamide], the IC50 was 4.6 nM in the assay on HCT116-MTAP-KO and 419 nM in the assay on HCT116-mock-RNA-KO.

As for `COC[C@@H](C)N(Cc1cnc(C2CC2)cn1)C(=O)c1cc2nc(N)c3c(c2[nH]1)COC3` [Example 53, (R)-5-amino-N-((5-cyclopropylpyrazin-2-yl)methyl)-N-(1-methoxypropan-2-yl)-6,8-dihydro-1H-furo[3,4-d]pyrrolo[3,2-b]pyridine-2-carboxamide], the IC50 in the assay on HCT116-MTAP-KO was 34 nM; in the assay on HCT116-mock-RNA-KO, greater than 10000 nM.

Regarding `CCN(C(=O)c1cc2nc(N)c3c(c2[nH]1)COC3)[C@@H]1COCc2cc(C(F)(F)F)ccc21` [Example 54, (S)-5-amino-N-ethyl-N-(7-(trifluoromethyl)isochroman-4-yl)-6,8-dihydro-1H-furo[3,4-d]pyrrolo[3,2-b]pyridine-2-carboxamide], the IC50 in the assay on HCT116-MTAP-KO was found to be 12 nM; in the assay on HCT116-mock-RNA-KO, 1360 nM.

Regarding `CCN(C(=O)c1cc2nc(N)c3c(c2[nH]1)COC3)[C@H]1COCc2cc(C(F)(F)F)ccc21` [Example 55, (R)-5-amino-N-ethyl-N-(7-(trifluoromethyl)isochroman-4-yl)-6,8-dihydro-1H-furo[3,4-d]pyrrolo[3,2-b]pyridine-2-carboxamide], the 50% inhibitory concentration (IC50) with HCT116-MTAP-KO is 1640 nM; in the assay on HCT116-mock-RNA-KO it was greater than 10000 nM.

As for `COC[C@@H](C)N(Cc1ncc(C2CC2)cc1F)C(=O)c1cc2nc(N)c3c(c2[nH]1)COC3` [Example 56, (R)-5-amino-N-((5-cyclopropyl-3-fluoropyridin-2-yl)methyl)-N-(1-methoxypropan-2-yl)-6,8-dihydro-1H-furo[3,4-d]pyrrolo[3,2-b]pyridine-2-carboxamide], the IC50 in the assay on HCT116-MTAP-KO stood at 5 nM; with HCT116-mock-RNA-KO it was 146 nM.

Regarding `C[C@H]1OC[C@H](N(C)C(=O)c2cc3nc(N)c4c(c3[nH]2)COC4)c2ccc(C(F)(F)F)cc21` [Example 57, 5-amino-N-methyl-N-((1R,4R)-1-methyl-7-(trifluoromethyl)isochroman-4-yl)-6,8-dihydro-1H-furo[3,4-d]pyrrolo[3,2-b]pyridine-2-carboxamide], the IC50 in the assay with HCT116-MTAP-KO is 958 nM; with HCT116-mock-RNA-KO it was greater than 10000 nM.

With `C[C@@H]1OC[C@H](N(C)C(=O)c2cc3nc(N)c4c(c3[nH]2)COC4)c2ccc(C(F)(F)F)cc21` [Example 58, 5-amino-N-methyl-N-((1S,4R)-1-methyl-7-(trifluoromethyl)isochroman-4-yl)-6,8-dihydro-1H-furo[3,4-d]pyrrolo[3,2-b]pyridine-2-carboxamide], the results for the IC50 in the assay on HCT116-MTAP-KO and with HCT116-mock-RNA-KO were 1080 nM and greater than 10000 nM, respectively.

In the case of `C[C@@H]1OC[C@@H](N(C)C(=O)c2cc3nc(N)c4c(c3[nH]2)COC4)c2ccc(C(F)(F)F)cc21` [Example 59, 5-amino-N-methyl-N-((1S,4S)-1-methyl-7-(trifluoromethyl)isochroman-4-yl)-6,8-dihydro-1H-furo[3,4-d]pyrrolo[3,2-b]pyridine-2-carboxamide], the figures for the IC50 in the assay on HCT116-MTAP-KO and in the assay with HCT116-mock-RNA-KO were 110 nM and greater than 10000 nM, respectively.

`C[C@H]1OC[C@@H](N(C)C(=O)c2cc3nc(N)c4c(c3[nH]2)COC4)c2ccc(C(F)(F)F)cc21` [Example 60, 5-amino-N-methyl-N-((1R,4S)-1-methyl-7-(trifluoromethyl)isochroman-4-yl)-6,8-dihydro-1H-furo[3,4-d]pyrrolo[3,2-b]pyridine-2-carboxamide]: the figures for the half-inhibitory concentration (IC50) in the assay with HCT116-MTAP-KO and in the assay on HCT116-mock-RNA-KO were 7.3 nM and 857 nM, respectively.
